ChEMBL document CHEMBL1149838, “Usimines A-C, bioactive usnic acid derivatives from the Antarctic lichen Stereocaulon alpinum” (J Nat Prod, 2008)

biological target: T1, Tyrosine-protein phosphatase non-receptor type 1 (Homo sapiens, UniProt P18031); test: Inhibition of human recombinant PTP1B
T1 sequence (P18031 whole entry): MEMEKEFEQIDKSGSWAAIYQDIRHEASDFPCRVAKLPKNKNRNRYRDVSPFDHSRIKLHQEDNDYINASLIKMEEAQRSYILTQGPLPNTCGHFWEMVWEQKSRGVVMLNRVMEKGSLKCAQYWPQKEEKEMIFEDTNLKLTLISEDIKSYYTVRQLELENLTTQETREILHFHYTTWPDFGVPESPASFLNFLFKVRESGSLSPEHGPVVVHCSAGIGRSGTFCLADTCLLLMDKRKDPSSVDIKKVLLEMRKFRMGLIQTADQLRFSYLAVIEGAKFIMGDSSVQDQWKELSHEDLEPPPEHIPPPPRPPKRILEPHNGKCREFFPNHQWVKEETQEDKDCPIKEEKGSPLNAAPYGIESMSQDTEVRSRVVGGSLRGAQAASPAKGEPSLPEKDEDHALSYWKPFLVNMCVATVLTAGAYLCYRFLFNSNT

IC50 [µM] | SMILES
15 | COC(=O)CC[C@H](/N=C(\C)C1=C(O)C=C2Oc3c(C(C)=O)c(O)c(C)c(O)c3[C@@]2(C)C1=O)C(=O)O [USIMINE A]
27.7 | CC(=O)c1c(O)c(C)c(O)c2c1OC1=CC(O)=C(/C(C)=N/[C@@H](CCC(=O)O)C(=O)O)C(=O)[C@@]12C [USIMINE B]
23.2 | CC(=O)c1c(O)c(C)c(O)c2c1OC1=CC(O)=C(/C(C)=N\[C@@H](CCC(=O)O)C(=O)O)C(=O)[C@@]12C [USIMINE C]

SMILES | IC50 [µM]
CC(=O)C1=C(O)C=C2Oc3c(C(C)=O)c(O)c(C)c(O)c3[C@@]2(C)C1=O [(+)-USNIC ACID] | 16.4
